Experimental data: ChEMBL document CHEMBL4152347 (J Med Chem, 2018); call rule not given here
Values after ≈ are worked out from the molar mass of the structure shown.

Columns and labels:
[1] = (§1) Drug metabolism in cynomolgus monkey plasma assessed as 4-((1R,3aS,5aR,5bR,7aR,11aS,11bR,13aR,13bR)-3a-amino-5a,5b,8,8,11a-pentamethyl-1-(prop-1-en-2-yl)-2,3,3a,4,5,5a,5b,6,7,7a,8,11,11a,11b,12,13,13a,13b-octadecahydro-1H-cyclopenta[a]chrysen-9-yl)benzoic acid formation at 5 mg/kg, po administered via gavage by LC-MS/MS analysis; format: ADME, organism-based, Macaca fascicularis; details: in vivo
[2] = as §1, with “beagle dog” for “cynomolgus monkey”; format: ADME, organism-based, Canis lupus familiaris; details: in vivo
[3] = (§2) Drug metabolism in cynomolgus monkey plasma assessed as (2S,3S,4S,5R,6S)-6-[4-[(1R,3aS,5aR,5bR,7aR,11aS,11bR,13aR,13bR)-3a-[2-(1,1-dioxo-1,4-thiazinan-4-yl)ethylamino]-1-isopropenyl-5a,5b,8,8,11a-pentamethyl-1,2,3,4,5,6,7,7a,11,11b,12,13,13a,13b-tetradecahydrocyclopenta[a]chrysen-9-yl]benzoyl]oxy-3,4,5-trihydroxy-tetrahydropyran-2-carboxylic acid formation at 5 mg/kg, po administered via gavage by LC-MS/MS analysis; format: ADME, organism-based, Macaca fascicularis; details: in vivo
[4] = as §2, with “beagle dog” for “cynomolgus monkey”; format: ADME, organism-based, Canis lupus familiaris; details: in vivo
[5] = Drug metabolism in cynomolgus monkey plasma assessed as mono-oxidation product formation at 5 mg/kg, po administered via gavage by LC-MS/MS analysis; format: ADME, organism-based, Macaca fascicularis; details: in vivo
[6] = Drug metabolism in beagle dog plasma assessed as mono-oxidation product formation at 5 mg/kg, po administered via gavage by LC-MS/MS analysis; format: ADME, organism-based, Canis lupus familiaris; details: in vivo
[7] = as §1, with “Sprague-Dawley rat” for “cynomolgus monkey”; format: ADME, organism-based; details: in vivo
[8] = as §2, with “human” for “cynomolgus monkey”; format: ADME, organism-based; details: in vivo
[9] = Drug metabolism in Sprague-Dawley rat plasma assessed as mono-oxidation product formation at 5 mg/kg, po administered via gavage by LC-MS/MS analysis; format: ADME, organism-based; details: in vivo
[10] = Drug metabolism in human plasma assessed as mono-oxidation product formation at 5 mg/kg, po administered via gavage by LC-MS/MS analysis; format: ADME, organism-based; details: in vivo
[11] = as §2, with “Sprague-Dawley rat” for “cynomolgus monkey”; format: ADME, organism-based; details: in vivo
[12] = as §1, with “human” for “cynomolgus monkey”; format: ADME, organism-based; details: in vivo
[13] = (§3) Drug level in beagle dog plasma treated with [14C]4-[(1R,3aS,5aR,5bR,7aR,11aS,11bR,13aR,13bR)-3a-[2-(1,1-dioxo-1,4-thiazinan-4-yl)ethylamino]-1-isopropenyl-5a,5b,8,8,11a-pentamethyl-1,2,3,4,5,6,7,7a,11,11b,12,13,13a,13b-tetradecahydrocyclopenta[a]chrysen-9-yl]benzoic acid at 5 mg/kg, po administered via gavage by LC-MS/MS analysis; format: ADME, organism-based, Canis lupus familiaris; details: in vivo
[14] = as §3, with “cynomolgus monkey” for “beagle dog”; format: ADME, organism-based, Macaca fascicularis; details: in vivo
[15] = as §3, with “Sprague-Dawley rat” for “beagle dog”, “acid” for “acid at 5 mg/kg, po administered via gavage”; format: ADME, cell-free
[16] = as §3, with “human” for “beagle dog”; format: ADME, organism-based; details: in vivo
[17] = in vitro; details: human, liver microsomes
Description: Half life in human liver microsomes at 0.5 uM after 1 hr in presence of NADPH by LC-MS/MS analysis

[18] = tested on: Human immunodeficiency virus 1; assay: microbe, parasite or virus in culture; details: Human immunodeficiency virus 1, MT2
Description: Antiviral activity against wild type HIV1 infected in human MT2 cells after 4 to 5 days by dual luciferase reporter gene assay

[19] = tested on: Human immunodeficiency virus 1; assay: microbe, parasite or virus in culture; details: Human immunodeficiency virus 1, MT2; remark: listed apart in the source
Description: Antiviral activity against HIV1 expressing gag delta V370 mutant infected in human MT2 cells after 4 to 5 days by dual luciferase reporter gene assay

[20] = tested on: Human immunodeficiency virus 1; assay: microbe, parasite or virus in culture; details: Human immunodeficiency virus 1, MT2; remark: listed apart in the source
[21] = in vitro; details: human, MT2 cells
Description: Cytotoxicity against human MT2 cells assessed as reduction in cell viability

[22] = physchem; details: aqueous
Description: Aqueous solubility of the compound

[23] = in vivo; details: Sprague-Dawley, rat, po, 5 mg/kg
[24] = in vitro; details: rat, liver microsomes
Description: Half life in rat liver microsomes at 0.5 uM after 1 hr in presence of NADPH by LC-MS/MS analysis

[25] = Dissociation constant, pKa of the compound; format: physicochemical
[26] = tested on: Human immunodeficiency virus 1; assay: microbe, parasite or virus in culture; details: Human immunodeficiency virus 1, MT2; remark: listed apart in the source
Description: Antiviral activity against wild type HIV1 infected in human MT2 cells after 4 to 5 days in presence of 10% FBS and 40% human serum albumin by dual luciferase reporter gene assay

[27] = tested on: Human immunodeficiency virus 1; assay: Ratio of EC50 for antiviral activity against wild type HIV1 infected in human MT2 cells after 4 to 5 days in presence of 10% FBS plus […] by dual luciferase reporter gene assay to EC50 for antiviral activity against wild type HIV1 infected in human MT2 cells after 4 to 5 days by dual luciferase reporter gene assay; format: functional
[28] = in vivo; details: Sprague-Dawley, rat, po, 5 mg/kg; remark: listed apart in the source
[29] = Solubility of compound in fasted state simulated intestinal fluid at pH 6.5; format: physicochemical
[30] = Solubility of compound in fed state simulated intestinal fluid at pH 5; format: physicochemical

SMILES | half-life at 1 h, 0.5 µM [17] | EC50 [18] | EC50 [19] | EC50 [20] | CC50 [21] | AUC(0-t) at 24 h [23] | half-life at 1 h, 0.5 µM [24] | EC50 [26] | also measured
C=C(C)[C@@H]1CC[C@]2(NCCN3CCS(=O)(=O)CC3)CC[C@]3(C)[C@H](CC[C@@H]4[C@@]5(C)CC=C(c6ccc([14C](=O)O)cc6)C(C)(C)[C@@H]5CC[C@]43C)[C@@H]12 |  |  |  |  |  |  |  |  | Drug metabolism [1]: Metabolite_Detected; Drug metabolism [2]: Metabolite_Detected; Drug metabolism [3]: Metabolite_Detected; Drug metabolism [4]: Metabolite_Detected; Drug metabolism [5]: Metabolite_Detected; Drug metabolism [6]: Metabolite_Detected; Drug metabolism [7]: Metabolite_Detected; Drug metabolism [8]: Metabolite_Detected; Drug metabolism [9]: Metabolite_Detected; Drug metabolism [10]: Metabolite_Detected; Drug metabolism [11]: Metabolite_Detected; Drug metabolism [12]: Metabolite_Detected
C=C(C)[C@@H]1CC[C@]2(NCCN3CCS(=O)(=O)CC3)CC[C@]3(C)[C@H](CC[C@@H]4[C@@]5(C)CC=C(c6ccc(C(=O)OC)cc6)C(C)(C)[C@@H]5CC[C@]43C)[C@@H]12 |  |  |  |  |  |  |  |  | Drug uptake [13]: Active; Drug uptake [14]: Active; Drug uptake [15]: Active; Drug uptake [16]: Active
C=C(C)[C@@H]1CC[C@]2(NCCN3CCS(=N)(=O)CC3)CC[C@]3(C)[C@H](CC[C@@H]4[C@@]5(C)CC=C(c6ccc(C(=O)O)cc6)C(C)(C)[C@@H]5CC[C@]43C)[C@@H]12 | > 2 h | 1.1 nM | 7.5 nM | 1.5 nM | 14000 nM | 20.7 µM·h | > 2 h |  | solubility [22]: < 1 µg/mL
C=C(C)[C@@H]1CC[C@]2(NCCN3CCC(F)(F)CC3)CC[C@]3(C)[C@H](CC[C@@H]4[C@@]5(C)CC=C(c6ccc(C(=O)O)cc6)C(C)(C)[C@@H]5CC[C@]43C)[C@@H]12 | > 2 h | 5.1 nM | 67.5 nM | 14.1 nM | > 10000 nM |  | > 2 h |  | pKa [25]: 8.5
C=C(C)[C@@H]1CC[C@]2(NCCN3CCCS(=O)(=O)CC3)CC[C@]3(C)[C@H](CC[C@@H]4[C@@]5(C)CC=C(c6ccc(C(=O)O)cc6)C(C)(C)[C@@H]5CC[C@]43C)[C@@H]12 | > 2 h | 3.6 nM |  |  | 4900 nM |  | > 2 h | 35.1 nM | Ratio EC50 [27]: 9.7
C=C(C)[C@@H]1CC[C@]2(NCCO)CC[C@]3(C)[C@H](CC[C@@H]4[C@@]5(C)CC=C(c6ccc(C(=O)O)cc6)C(C)(C)[C@@H]5CC[C@]43C)[C@@H]12 | > 2 h |  | 66 nM | 9.9 nM | 8480 nM |  | > 2 h |  | AUC(0-t) at 6 h [28]: 4.98 µM·h
C=C(C)[C@@H]1CC[C@]2(NCCN3C[C@@H]4C[C@H]3CS4(=O)=O)CC[C@]3(C)[C@H](CC[C@@H]4[C@@]5(C)CC=C(c6ccc(C(=O)O)cc6)C(C)(C)[C@@H]5CC[C@]43C)[C@@H]12 | > 2 h | 1.9 nM | 7.7 nM | 2.8 nM | 7340 nM | 27 µM·h | > 2 h | 11.1 nM | solubility [22]: < 1 µg/mL
C=C(C)[C@@H]1CC[C@]2(NC(=O)CN3CCS(=O)(=O)CC3)CC[C@]3(C)[C@H](CC[C@@H]4[C@@]5(C)CC=C(c6ccc(C(=O)O)cc6)C(C)(C)[C@@H]5CC[C@]43C)[C@@H]12 | > 2 h | 2.1 nM | 18.9 nM | 3.5 nM | 9900 nM |  | > 2 h |  | AUC(0-t) at 6 h [28]: 8.74 µM·h
C=C(C)[C@@H]1CC[C@]2(CNCCCN3CCS(=O)(=O)CC3)CC[C@]3(C)[C@H](CC[C@@H]4[C@@]5(C)CC=C(c6ccc(C(=O)O)cc6)C(C)(C)[C@@H]5CC[C@]43C)[C@@H]12 | > 2 h |  |  |  |  | 3.15 µM·h | > 2 h |  | pKa [25]: 5.4
C=C(C)[C@@H]1CC[C@]2(NCCN3CCN(S(C)(=O)=O)CC3)CC[C@]3(C)[C@H](CC[C@@H]4[C@@]5(C)CC=C(c6ccc(C(=O)O)cc6)C(C)(C)[C@@H]5CC[C@]43C)[C@@H]12 | > 2 h | 3.3 nM | 27.2 nM | 5.2 nM | 10700 nM | 28.6 µM·h | > 2 h | 26.1 nM | solubility [22]: < 1 µg/mL
C=C(C)[C@@H]1CC[C@]2(NCCCN3CCS(=O)(=O)CC3)CC[C@]3(C)[C@H](CC[C@@H]4[C@@]5(C)CC=C(c6ccc(C(=O)O)cc6)C(C)(C)[C@@H]5CC[C@]43C)[C@@H]12 | > 2 h | 3.5 nM | 37.3 nM | 7.5 nM | 15800 nM | 9.61 µM·h | > 2 h | 23.6 nM | AUC(0-t) at 6 h [28]: 9.36 µM·h
C=C(C)[C@@H]1CC[C@]2(C(=O)NCCCN3CCS(=O)(=O)CC3)CC[C@]3(C)[C@H](CC[C@@H]4[C@@]5(C)CC=C(c6ccc(C(=O)O)cc6)C(C)(C)[C@@H]5CC[C@]43C)[C@@H]12 | > 2 h | 2.1 nM | 42.8 nM | 1.4 nM | 10600 nM |  | > 2 h |  | AUC(0-t) at 6 h [28]: 1.28 µM·h
C=C(C)[C@@H]1CC[C@]2(N)CC[C@]3(C)[C@H](CC[C@@H]4[C@@]5(C)CC=C(c6ccc(C(=O)O)cc6)C(C)(C)[C@@H]5CC[C@]43C)[C@@H]12 |  |  |  |  |  |  |  |  | Drug uptake [13]: Active; Drug uptake [14]: Active; Drug uptake [15]: Active; Drug uptake [16]: Active
C=C(C)[C@@H]1CC[C@]2(NCCN3CCS(=O)(=O)CC3)CC[C@]3(C)[C@H](CC[C@@H]4[C@@]5(C)CC=C(c6ccc(C(=O)O)c(F)c6)C(C)(C)[C@@H]5CC[C@]43C)[C@@H]12 | > 2 h | 2.8 nM | 9.7 nM | 3.4 nM | 7800 nM | 24.3 µM·h | > 2 h | 12.8 nM | solubility [29]: 140 µg/mL (≈ 197 µM); solubility [30]: 330 µg/mL (≈ 465 µM); solubility [22]: < 1 µg/mL
C=C(C)[C@@H]1CC[C@]2(NCCN3CCOCC3)CC[C@]3(C)[C@H](CC[C@@H]4[C@@]5(C)CC=C(c6ccc(C(=O)O)cc6)C(C)(C)[C@@H]5CC[C@]43C)[C@@H]12 | > 2 h | 8.3 nM | 47.4 nM | 13.2 nM | > 10000 nM |  | > 2 h |  | pKa [25]: 8.2
